The data set deals with mixed-species bacterial culture (Actinomyces viscosus, Lactobacillus casei, Fusobacterium nucleatum subsp. polymorphum, Streptococcus oralis and Veillonella …). In words: Short interval kill (SIK) test. As to conditions: thirty seconds treatment, Live/Dead staining. In kind it is cell-based. As for the experimental part: The anti-microbial efficacy of mouthwash formulations according to the present invention was tested using short interval kill (SIK) test. The formulations tested were the same as those used in Example 2. 500 μl of a mixed-species bacterial culture (Actinomyces viscosus (ATCC#43146), Lactobacillus casei (ATCC#334), Fusobacterium nucleatum subsp. polymorphum (ATCC#10953), Streptococcus oralis (ATCC#35037) and Veillonella parvula (ATCC#17745)) were transferred to sterile 2 ml microcentrifuge tubes. The samples were centrifuged for 10 min at ˜21 000×g to pellet bacterial cells. […] The re-suspended samples were subsequently treated with 100 μl of mouthwash or control solution. Bacterial killing was stopped after thirty seconds by adding 1.3 ml of D/E Neutralization Buffer. Samples were centrifuged for 10 min at 10,000 rpm to pellet bacterial cells. […] Finally, the pelleted cells were suspended in 150 μl of sterile PBS and aliquots were transferred to each of three wells of a sterile 96-well plate. To quantify the viable bacteria left after treatment, the bacterial suspensions were stained using Invitrogen BacLight Live/Dead viability kit. This kit consists of two fluorescent dyes, propidium iodine and SYTO9. The first dye, propidium iodide, is a red fluorescent DNA stain that can only penetrate bacterial cells whose membranes have been permeabilized (i.e. those cells that are “dead”). The second dye, SYTO9, is a green fluorescent DNA dye that is able to stain all bacterial cells. The bacterial suspensions were stained by adding 50 μl of a solution containing the two dyes in equal amounts to each well of the 96-well plate. Plates were then incubated for 15 min at room temperature, protected from light. The fluorescence of the samples were measured at an excitation wavelength of 485 nm and emission wavelengths of 535 nm and 635 nm. The results are illustrated in Table 8, and are provided as the percentage of cells that are viable relative to a control treatment with PBS alone.

The structures appear in SMILES notation.

Turning to `CCO` [Ethanol 100%, Ethanol], the “percentage of cells that are viable relative to PBS control, Run 1” value (Run 1) came to 44%. Where the note is “Run 2”, the “percentage of cells that are viable relative to PBS control, Run 2” value was 47%. Moreover, the “percentage of cells that are viable relative to PBS control, Run 3” value (Run 3) was found to be 48%. For the same compound, the “percentage of cells that are viable relative to PBS control, Average” value (average of 3 runs) is 46%.
